Series [1] deals with human lung cancer A549. Description: Tumor-inhibitory effect on A549 transplanted to nude mouse. The settings on record: 100 mg/kg ig twice a day, 3 weeks, p-Toluenesulfonate. Type of series: in vivo, nude mice. Here is the method:
(§1) The diameters of the transplanted tumors of nude mice were measured with a vernier caliper. The animals were grouped randomly when the tumors grew to a size of 80-100 mm^3. […] The positive control drug MMC (Mitomycin) was intravenously administered once on the first day with a dose of 5 mg/kg. The negative control group were administered with 0.5% CMC-Na (Carboxymethyl Cellulose Sodium) with a dose of 0.2 mL/per mouse. The long axis (a) and the short axis (b) of the tumors were measured twice every week and the nude mice were weighed at the same time. […] RTV=Vt/V0, wherein V0 represents the tumor volume measured at the grouping time of administration, and Vt represents the tumor volume measured each time). The relative tumor proliferation rate T/C (%) was chosen as the index to evaluate the anti-tumor activity, which can be calculated according to the following formula: T/C (%)=(TRTV/CRTV)×100 TRTV: RTV of the treated group; CRTV: RTV of the negative control group The standard for evaluating the effectiveness: […]

The subject of series [2] is human lung cancer Calu-3. Description: Tumor-inhibitory effect on Calu-3 transplanted to nude mouse. It counts as in vivo, nude mice. The settings on record: 100 mg/kg ig twice a day, 3 weeks, p-Toluenesulfonate. Here is the method:
as §1

Series [3] has as its system human ovarian cancer SKOV-3. Description: Tumor-inhibitory effect on SKOV-3 transplanted to nude mouse. It counts as in vivo, BALB/cA nude mouse. Here is the method: A tumor SKOV-3 in vigorous growth period was selected and cut into several uniform bits of a size of about 1.5 mm^3, which was inoculated subcutaneously to the right armpit of the BALB/cA nude mice using trocar under sterile conditions. The diameters of the transplanted tumors of nude mice were measured with a vernier caliper. The animals were grouped randomly when the tumors grew to a size of 80-100 mm^3. The tested animal group were intragastrically administrated through mouth as mentioned above once a day for 3 weeks continuously. The positive control drug MMC (Mitomycin) was intravenously administered once on the first day with a dose of 5 mg/kg. The negative control group were administered with 0.5% CMC-Na (Carboxymethyl Cellulose Sodium) with a dose of 0.2 mL/per mouse. The long axis (a) and the short axis (b) of the tumors were measured twice every week and the nude mice were weighed at the same time. According to the formula V=ab^2/2, the tumor volume (mm^3) could be calculated, based on which the relative tumor volume (RTV) was calculated (Calculation Formula: RTV=Vt/V0, wherein V0 represents the tumor volume measured at the grouping time of administration, and Vt represents the tumor volume measured each time). The relative tumor proliferation rate T/C (%) was chosen as the index to evaluate the anti-tumor activity, which can be calculated according to the following formula: T/C (%)=(TRTV/CRTV)×100
TRTV: RTV of the treated group; CRTV: RTV of the negative control group
V0 represents the tumor volume before the administration, and V21 represents the tumor volume after 3 weeks of continuous administration.
According to the experimental method mentioned above, the tumor-bearing nude mice, into which the human ovarian cancer SKOV-3, the human lung cancer Calu-3, and the human lung cancer A549 were transplanted respectively, were intragastrically administrated with Form B (100 mg/kg) of the present invention through mouth twice a day for 3 weeks continuously.
According to the experimental method mentioned above, the tumor-bearing nude mice, into which the human ovarian cancer SKQV-3, the human lung cancer Calu-3, and the human lung cancer A549 were transplanted respectively, were intragastrically administrated with Form C (100 mg/kg) of the present invention through mouth twice a day for 3 weeks continuously.

Series [4] in a line: Light stability test (illumination 4500 lx±500 lx). Type of series: physicochemical. The following applies: p-Toluenesulfonate; for light stability: 4500 lx±500 lx, one month, in words; for Purity (%): illumination 4500 lx±500 lx. An excerpt:
The purity of Form A was detected at 0, 10 and 30 days, which was based to deduce to the light stability of Form A. The light stability of Form B and Form C were also deduced by this method.

Series [5] is described as follows: Toxicity test of long-term administration. It counts as in vivo. The following applies: SD rats, ig, 20, 50, 100, 500 or 800 mg/(kg·day), four weeks. Here is the method:
80 healthy SD rats, male and weighed 200˜250 g, were grouped into 16 groups randomly, and were each intragastrically administered with Form A, B or C of the p-toluenesulfonate of the compound of formula (I) or a blank solvent (Five test groups with the dose of 20, 50, 100, 500 or 800 mg/(kg·day) and a solvent control group were set).

A short description of series [6]: Thermal stability test (storage at 60° C.). Type of series: physicochemical. The following applies: p-Toluenesulfonate; for thermal stability: 60° C., one month, in words; for Purity (%): stored at 60° C. The text has this:
The purity of Form A was detected at 0, 10 and 30 days, which was based to deduce the thermal stability of Form A. The thermal stability of Form B and Form C were also deduced by this method.

Series [7] is described as follows: Hygroscopicity test (high moisture environment of 92.5%). It counts as physicochemical. The settings on record: p-Toluenesulfonate; for stability under the environment of high moisture: 92.5% moisture, one month, in words; for Purity (%): high moisture environment of 92.5%. An excerpt:
The purity of Form A was detected at 0, 10 and 30 days, which was based to deduce the hygroscopicity of Form A. The hygroscopicities of Form B and Form C were also deduced by this method.

Series [8] relates to human breast cancer cell BT-474. The following applies: from WO 2007/082434; in words; cited from earlier work.
In series [9] the test system is human epidermoid squamous cancer cell A431. The settings on record: from WO 2007/082434; in words; cited from earlier work.
Series [10] shares this test system. The following applies: from WO 2007/082434; in words; cited from earlier work. The source holds these as a separate data set.
For series [11], the target named is Erb-B2 kinase (Homo sapiens, UniProt P04626). The settings on record: in vitro; from WO 2007/082434; in words; cited from earlier work.
Series [12] deals with human epidermatoid squamous cancer A431. Description: Tumor-inhibitory effect on A431 transplanted to nude mouse. It counts as in vivo, BALB/cA nude mouse. The following applies: for Weight of animals (g) (without tumor) / Tumor inhibition rate % / Weight of tumors (g) x ± SD: 13 days; for Tumor inhibition rate %: by tumor weight; for Weight of tumors (g) x ± SD: killed 23 days after inoculation. Here is the method: A well-developed solid tumor A431 was selected and cut into several uniform bits of a size of 2-3 mm under sterile conditions, with one bit being inoculated subcutaneously to the right armpit of each of the BALB/cA nude mice using trocar. 7 days after inoculation, the mice were grouped randomly and were intragastrically administrated through mouth for 13 days continuously. The long axis (a) and the short axis (b) of the tumors were measured with a vernier caliper every 4 days. According to the formula V=ab^2/2, the tumor volume (mm^3) could be calculated. The tested animals were neck-off killed 23 days after the inoculation, and anatomized to obtain the tumors. The tumors were weighed, and the tumor inhibition rate was calculated.

These results are taken from patent publication US9102629B2, “Polymorphic forms of 4-phenylamine quinazoline derivative, the preparation method and uses thereof” (priority 2008, dated 2015).

Structures are written as SMILES.

Chain of Erb-B2 kinase (P04626 23-1255): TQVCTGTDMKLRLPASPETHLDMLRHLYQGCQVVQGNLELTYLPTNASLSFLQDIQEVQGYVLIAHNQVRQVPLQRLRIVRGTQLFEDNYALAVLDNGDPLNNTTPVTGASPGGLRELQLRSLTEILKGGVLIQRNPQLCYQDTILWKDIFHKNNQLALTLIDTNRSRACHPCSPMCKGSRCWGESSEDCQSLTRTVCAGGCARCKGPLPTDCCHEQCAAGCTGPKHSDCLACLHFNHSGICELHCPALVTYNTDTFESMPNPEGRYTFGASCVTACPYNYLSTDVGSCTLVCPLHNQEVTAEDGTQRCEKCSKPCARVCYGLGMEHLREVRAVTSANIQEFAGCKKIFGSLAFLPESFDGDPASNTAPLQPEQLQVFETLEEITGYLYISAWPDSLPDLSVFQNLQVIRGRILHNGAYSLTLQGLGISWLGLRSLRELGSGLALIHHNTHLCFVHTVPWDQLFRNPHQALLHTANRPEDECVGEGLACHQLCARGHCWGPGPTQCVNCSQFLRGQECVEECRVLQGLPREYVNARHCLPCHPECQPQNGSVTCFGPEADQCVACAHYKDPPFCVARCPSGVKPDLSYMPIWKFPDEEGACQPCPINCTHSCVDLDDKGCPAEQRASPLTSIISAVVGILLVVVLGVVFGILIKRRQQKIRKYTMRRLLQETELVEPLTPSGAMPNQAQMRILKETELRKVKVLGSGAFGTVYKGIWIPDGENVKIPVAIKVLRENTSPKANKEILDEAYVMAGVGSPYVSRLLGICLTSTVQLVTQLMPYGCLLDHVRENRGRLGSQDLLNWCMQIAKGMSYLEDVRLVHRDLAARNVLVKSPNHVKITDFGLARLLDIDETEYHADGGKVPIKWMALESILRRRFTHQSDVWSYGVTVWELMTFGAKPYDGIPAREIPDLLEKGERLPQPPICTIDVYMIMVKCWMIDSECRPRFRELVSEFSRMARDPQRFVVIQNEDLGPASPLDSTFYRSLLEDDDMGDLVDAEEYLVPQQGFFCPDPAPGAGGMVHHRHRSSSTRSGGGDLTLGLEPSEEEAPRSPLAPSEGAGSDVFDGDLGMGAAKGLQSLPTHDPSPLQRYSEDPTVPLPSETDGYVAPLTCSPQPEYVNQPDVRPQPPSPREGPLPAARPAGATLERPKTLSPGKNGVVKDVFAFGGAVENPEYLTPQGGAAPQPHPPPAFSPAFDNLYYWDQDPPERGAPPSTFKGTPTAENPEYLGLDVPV

`C=CC(=O)Nc1ccc2ncnc(Nc3ccc(OCc4cccc(F)c4)c(Cl)c3)c2c1.Cc1ccc(S(=O)(=O)O)cc1` [Form C, N-{4-[3-chloro-4-(3-fluoro-benzyloxy)phenylamino]-quinazolin-6-yl}-acrylamide p-Toluenesulfonate]: the “relative tumor proliferation rate T/C” value in series [1] came to 58.7%; in [2] it was 39.4%; in [3] (SKOV-3, 100 mg/kg ig twice a day, 3 weeks, p-Toluenesulfonate) it was 23.2%. Moreover, the tumor inhibitory effects entry in series [3] (summary in words for SKOV-3, Calu-3 and A549 models, 100 mg/kg ig twice a day) is listed as “significant tumor inhibitory effects”. In addition, the light stability result in series [4] is “good”. The “Purity (%)” value in [4] (detect time 0) amounted to 99.03%; in series [4] (detect time 10), 98.54%; in [4] (detect time 30), 98.42%; in series [6] (detect time day 0), 99.03%; in series [6] (detect time day 10), 97.08%; in series [6] (detect time day 30), 97.55%. Moreover, the “Purity (%)” value in [7] (detect time 0) was determined as 99.03%; in series [7] (detect time 10), 98.27%; in series [7] (detect time 30), 98.08%. Also, in series [5], the food intake result was “normal”. In addition, in [5], the “physical signs, appearance, behaviors, activities or shape of dejecta” value was “no abnormality”. Also, the “weight and weight increase of the rats” value in series [5] is on record as “basically similar to the solvent control group”. Further, the thermal stability entry in series [6] is recorded as “good”. Besides, the “stability under the environment of high moisture” value in series [7] is given as “comparatively stable”.
On to `C=CC(=O)Nc1ccc2ncnc(Nc3ccc(OCc4cccc(F)c4)c(Cl)c3)c2c1` [Compound of formula (I), N-{4-[3-chloro-4-(3-fluoro-benzyloxy)phenylamino]-quinazolin-6-yl}-acrylamide], for which the “inhibiting the growth of BT-474 cells” value in series [8] is “relatively good effect”. In addition, the “tumor-inhibiting effect on A431 implanted into a nude mouse” value in series [9] was “significant tumor-inhibiting effect”. Also, the “inhibiting the growth of A431 cells” value in series [10] is reported as “relatively good effect”. Moreover, in series [11], the “inhibitory activity against Erb-B2 kinase” value was “excellent inhibitory activity”.
`C=CC(=O)Nc1ccc2ncnc(Nc3ccc(OCc4cccc(F)c4)c(Cl)c3)c2c1.Cc1ccc(S(=O)(=O)O)cc1` [Form A, N-{4-[3-chloro-4-(3-fluoro-benzyloxy)phenylamino]-quinazolin-6-yl}-acrylamide p-Toluenesulfonate]: the “Weight of animals (g) (without tumor)” value is given as 21.58 ± 2.18 g in series [12] (25 mg/kg ig, A431 nude mouse); 22.87 ± 3.96 g in series [12] (50 mg/kg ig, A431 nude mouse); 22.13 ± 1.83 g in series [12] (100 mg/kg ig, A431 nude mouse). Moreover, the figures for the “Tumor inhibition rate %” value in series [12] (25 mg/kg ig), in series [12] (50 mg/kg ig) and in series [12] (100 mg/kg ig) were 29.99%, 38.67% and 43.63%, respectively. The entries for the “Weight of tumors (g) x ± SD” value in series [12] (25 mg/kg ig), in series [12] (50 mg/kg ig) and in [12] (100 mg/kg ig) were 0.79 ± 0.20 g, 0.69 ± 0.17 g and 0.64 ± 0.23 g, respectively. Also, in series [12] (A431 nude mouse, ig, in words), the “inhibitory effect on the tumor” value is “significant inhibitory effect”. Moreover, in series [3] (SKOV-3 nude mouse, ig once a day, in words), the tumor inhibitory effect result is listed as “significant tumor inhibitory effect”. In addition, the light stability result in [4] was “good”. Further, the “Purity (%)” value in series [4] (detect time 0) is reported as 98.64%; in series [4] (detect time 10), 98.16%; in [4] (detect time 30), 97.24%; in [6] (detect time day 0) it was 98.64%; in series [6] (detect time day 10), 98.64%; in series [6] (detect time day 30), 98.64%. Further, the figures for the “Purity (%)” value in series [7] (detect time 0), in [7] (detect time 10) and in [7] (detect time 30) were 98.64%, 98.62% and 98.62%, respectively. Moreover, the food intake result in series [5] is given as “normal”. Moreover, in series [5], the “physical signs, appearance, behaviors, activities or shape of dejecta” value is given as “no abnormality”. Moreover, in series [5], the “weight and weight increase of the rats” value is recorded as “basically similar to the solvent control group”. Further, the thermal stability result in series [6] is “excellent”. For the same molecule, the “stability under the environment of high moisture” value in series [7] is given as “very stable”.
